This passage reports AC50 results from ChEMBL document CHEMBL5291721, “A preclinical secondary pharmacology resource illuminates target-adverse drug reaction associations of marketed drugs” (Nat Commun, 2023).

Test [1] deals with T1, Gastric inhibitory polypeptide receptor (Homo sapiens, UniProt P48546).
T1 sequence (P48546 whole entry): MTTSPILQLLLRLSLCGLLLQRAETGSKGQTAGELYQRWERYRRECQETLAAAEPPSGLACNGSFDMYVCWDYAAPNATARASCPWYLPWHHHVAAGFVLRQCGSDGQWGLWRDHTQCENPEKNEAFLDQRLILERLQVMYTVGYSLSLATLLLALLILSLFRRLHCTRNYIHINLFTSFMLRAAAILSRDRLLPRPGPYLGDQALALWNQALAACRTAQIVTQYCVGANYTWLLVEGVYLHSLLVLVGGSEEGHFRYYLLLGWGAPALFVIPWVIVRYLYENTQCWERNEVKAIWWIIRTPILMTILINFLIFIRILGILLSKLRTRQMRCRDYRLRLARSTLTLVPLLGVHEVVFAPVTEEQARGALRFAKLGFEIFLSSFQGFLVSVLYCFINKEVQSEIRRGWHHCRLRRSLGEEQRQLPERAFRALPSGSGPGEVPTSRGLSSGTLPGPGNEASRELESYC

In test [2] the target is T2, Equilibrative nucleoside transporter 1 (Homo sapiens, UniProt Q99808).
T2 sequence (Q99808 whole entry): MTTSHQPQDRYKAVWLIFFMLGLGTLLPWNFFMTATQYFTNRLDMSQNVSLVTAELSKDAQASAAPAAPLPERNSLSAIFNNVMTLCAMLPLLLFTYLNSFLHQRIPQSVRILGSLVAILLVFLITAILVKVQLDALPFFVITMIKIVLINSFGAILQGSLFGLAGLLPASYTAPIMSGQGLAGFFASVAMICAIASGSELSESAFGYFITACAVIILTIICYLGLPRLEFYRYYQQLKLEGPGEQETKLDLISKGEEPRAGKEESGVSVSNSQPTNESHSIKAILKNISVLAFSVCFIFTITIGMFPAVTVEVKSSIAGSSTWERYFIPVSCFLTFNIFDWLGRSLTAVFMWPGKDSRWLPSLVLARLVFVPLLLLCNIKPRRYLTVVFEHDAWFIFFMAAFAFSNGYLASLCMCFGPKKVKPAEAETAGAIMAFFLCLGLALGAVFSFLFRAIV

In test [3] the target is T3, B2 bradykinin receptor (Homo sapiens, UniProt P30411).
T3 sequence (P30411 whole entry): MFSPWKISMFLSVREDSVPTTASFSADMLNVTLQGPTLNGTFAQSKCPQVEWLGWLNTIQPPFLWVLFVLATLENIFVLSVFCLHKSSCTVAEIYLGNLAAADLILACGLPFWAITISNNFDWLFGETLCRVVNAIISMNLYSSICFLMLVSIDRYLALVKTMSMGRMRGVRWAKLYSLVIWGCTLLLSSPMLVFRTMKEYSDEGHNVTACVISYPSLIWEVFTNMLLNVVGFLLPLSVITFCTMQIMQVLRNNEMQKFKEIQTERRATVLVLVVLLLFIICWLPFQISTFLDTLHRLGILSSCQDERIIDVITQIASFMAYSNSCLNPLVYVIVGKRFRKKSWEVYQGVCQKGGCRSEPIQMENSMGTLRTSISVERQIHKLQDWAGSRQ

For test [4], the target named is T4, 5-hydroxytryptamine receptor 2B (Homo sapiens, UniProt P41595).
Test [5] deals with Beta-3 adrenergic receptor (Homo sapiens, UniProt P13945).
Test [6] has as its target T5, Alpha-1A adrenergic receptor (Homo sapiens, UniProt P35348).
T5 sequence (P35348 whole entry): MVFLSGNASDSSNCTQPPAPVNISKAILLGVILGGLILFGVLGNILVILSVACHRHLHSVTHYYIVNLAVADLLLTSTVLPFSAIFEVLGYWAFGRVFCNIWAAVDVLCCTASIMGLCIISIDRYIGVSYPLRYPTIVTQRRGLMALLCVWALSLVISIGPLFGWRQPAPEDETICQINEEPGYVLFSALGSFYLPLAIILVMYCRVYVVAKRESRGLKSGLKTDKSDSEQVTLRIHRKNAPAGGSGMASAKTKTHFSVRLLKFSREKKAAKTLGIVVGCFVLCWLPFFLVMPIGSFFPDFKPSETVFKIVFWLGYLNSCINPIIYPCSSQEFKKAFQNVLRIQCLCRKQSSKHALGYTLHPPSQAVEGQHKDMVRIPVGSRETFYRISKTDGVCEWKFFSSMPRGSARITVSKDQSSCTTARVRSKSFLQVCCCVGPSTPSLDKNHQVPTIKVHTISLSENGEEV
Type of test: functional, cell-based.

The target of test [7] is T4, 5-hydroxytryptamine receptor 2B. Type of test: functional, cell-based.
Test [8] has as its target T6, Adenosine receptor A3 (Homo sapiens, UniProt P0DMS8).
T6 sequence (P0DMS8 whole entry): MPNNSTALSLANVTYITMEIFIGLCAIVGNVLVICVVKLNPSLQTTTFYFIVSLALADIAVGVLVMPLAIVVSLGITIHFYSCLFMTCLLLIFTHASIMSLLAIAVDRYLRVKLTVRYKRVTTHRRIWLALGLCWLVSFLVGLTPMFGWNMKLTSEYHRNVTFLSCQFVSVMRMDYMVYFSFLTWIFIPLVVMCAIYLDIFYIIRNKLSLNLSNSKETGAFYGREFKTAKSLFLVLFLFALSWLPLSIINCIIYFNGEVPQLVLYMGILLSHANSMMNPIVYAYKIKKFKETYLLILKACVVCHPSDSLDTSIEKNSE

Test [9] deals with T7, Estrogen receptor (Homo sapiens, UniProt P03372).
T7 sequence (P03372 whole entry): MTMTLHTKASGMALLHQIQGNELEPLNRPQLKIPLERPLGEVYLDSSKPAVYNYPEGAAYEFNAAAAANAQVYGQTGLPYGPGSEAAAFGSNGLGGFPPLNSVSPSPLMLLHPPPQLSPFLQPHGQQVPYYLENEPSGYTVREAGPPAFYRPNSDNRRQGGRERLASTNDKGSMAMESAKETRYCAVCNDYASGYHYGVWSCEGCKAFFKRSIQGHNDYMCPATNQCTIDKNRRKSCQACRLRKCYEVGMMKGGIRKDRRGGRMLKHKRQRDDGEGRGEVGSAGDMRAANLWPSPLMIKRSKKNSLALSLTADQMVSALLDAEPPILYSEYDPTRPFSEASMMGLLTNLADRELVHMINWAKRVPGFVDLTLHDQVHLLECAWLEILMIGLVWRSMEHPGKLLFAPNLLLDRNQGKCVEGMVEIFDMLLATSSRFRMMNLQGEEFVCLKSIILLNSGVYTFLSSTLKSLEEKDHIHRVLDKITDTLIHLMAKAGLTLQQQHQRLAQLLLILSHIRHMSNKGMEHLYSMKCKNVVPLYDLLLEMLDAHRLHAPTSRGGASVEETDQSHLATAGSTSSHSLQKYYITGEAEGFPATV
Note: assay procedure not described here.

T4 sequence (P41595 whole entry): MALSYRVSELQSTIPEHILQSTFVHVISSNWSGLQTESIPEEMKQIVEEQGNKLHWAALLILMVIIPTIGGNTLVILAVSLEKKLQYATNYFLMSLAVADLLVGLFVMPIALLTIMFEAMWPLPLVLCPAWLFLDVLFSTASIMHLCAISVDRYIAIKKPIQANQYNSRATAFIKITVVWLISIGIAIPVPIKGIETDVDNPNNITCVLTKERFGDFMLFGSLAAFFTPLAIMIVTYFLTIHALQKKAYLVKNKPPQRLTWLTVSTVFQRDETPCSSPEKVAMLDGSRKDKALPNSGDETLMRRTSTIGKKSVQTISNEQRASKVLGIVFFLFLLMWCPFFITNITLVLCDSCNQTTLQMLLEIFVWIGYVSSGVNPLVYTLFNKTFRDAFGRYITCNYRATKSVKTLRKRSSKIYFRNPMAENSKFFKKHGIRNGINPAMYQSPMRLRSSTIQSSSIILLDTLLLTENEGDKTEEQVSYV
Chain of Beta-3 adrenergic receptor (P13945 whole entry): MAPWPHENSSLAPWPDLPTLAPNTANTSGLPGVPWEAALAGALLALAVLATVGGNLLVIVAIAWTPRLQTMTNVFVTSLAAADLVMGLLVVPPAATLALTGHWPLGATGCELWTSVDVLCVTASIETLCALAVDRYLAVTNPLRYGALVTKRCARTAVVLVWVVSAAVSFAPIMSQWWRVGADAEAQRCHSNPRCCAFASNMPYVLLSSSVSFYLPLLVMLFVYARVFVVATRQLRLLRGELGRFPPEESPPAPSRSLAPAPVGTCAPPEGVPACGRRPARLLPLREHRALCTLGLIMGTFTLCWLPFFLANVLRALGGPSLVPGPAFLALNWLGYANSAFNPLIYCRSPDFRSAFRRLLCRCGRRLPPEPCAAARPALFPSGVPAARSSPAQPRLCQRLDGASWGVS

In the case of `Cc1onc(-c2ccccc2)c1-c1ccc(S(N)(=O)=O)cc1` [VALDECOXIB], the AC50 in [1] was above 30 µM; in [2] it was above 30 µM; in [3] it was above 30 µM; in test [4], above 10 µM; in test [5] it was above 30 µM; in test [6] it was above 30 µM. The figures for the AC50 in test [7] and in test [8] were above 10 µM and 23.8 µM, respectively.

On to `CC(C)Cc1ccc(C(C)C(=O)O)cc1` (stereo unspecified) [IBUPROFEN], for which the AC50 in test [1] is above 30 µM; in [2], above 30 µM; in test [3], above 30 µM; in test [4] it was above 10 µM; in test [5] it was 7.12 µM; in test [9], above 30 µM. Also, the AC50 in [6] was above 30 µM; in test [7] it was above 10 µM; in test [8], above 30 µM.

With `CCCC(CCC)C(=O)O` [VALPROIC ACID], the AC50 was above 30 µM in [1]; above 30 µM in [2]; above 30 µM in test [3]; above 10 µM in [4]; above 30 µM in test [5]; above 30 µM in test [9]. The AC50 in test [7] was above 10 µM.

`COc1cc2nc(N3CCN(C(=O)C4CCCO4)CC3)nc(N)c2cc1OC` (stereo unspecified) [TERAZOSIN]: the AC50 in test [1] was above 30 µM; in [2], above 30 µM; in test [3], above 30 µM; in test [4], above 10 µM; in [5], above 30 µM; in test [9] it was above 30 µM. The same compound registered a half-maximal activity concentration (AC50) in test [7] above 10 µM.
